# Data taken from ChEMBL document CHEMBL1201862, “PubChem BioAssay data set” (2004).
# “And” between values parts separate entries of the source, which are not always exact repeats. Identical values can stand only once. The source made the active and inactive calls.
# Tests used:
# Vero [1] = test: cells; type: functional, cell-based; conditions: Chlorocebus sabaeus
# Vero [2] = test: cells; type: functional; conditions: Chlorocebus sabaeus
# CAAX prenyl protease 1 = CAAX prenyl protease 1 (Saccharomyces cerevisiae S288c, UniProt P47154); test: Ste24 protease inhibitors, dose response, biochemical, S. cerevisiae, plate reader, cherry-pick (AID 488815)
# [3] = biological target: Dual specificity protein kinase CLK1 (Homo sapiens, UniProt P49759); test: CLK1 kinase inhibitors, off-target check, dose response, selectivity assay for Dyrk1A inhibitor project, biochemical, cherry-picked samples (AID 588811)
# Escherichia coli [4] = test: microbe, parasite or virus in culture
# Escherichia coli [5] = test: microbe, parasite or virus in culture; remark: listed apart in the source
# [6] = biological target: Luciferin 4-monooxygenase (Photinus pyralis, UniProt P08659); test: Counter Screen for Luciferase-based Assay Positives. [Related pubchem assays: 620, 618, 411 ]
# HT-1080 = test: cytotoxicity in HT1080 fibrosarcoma cells, cell-based, fluorescence readout (AID 620); type: functional; conditions: Homo sapiens
# [7] = inhibitors of SNCA 5'UTR-driven translation, confirmation, luminescence, H4 neuroglioblastoma cells, dose confirmation (AID 2454); type: functional, cell-based;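 further: H4 neuroglioblastoma cells carrying an alpha-synuclein 5'UTR luciferase reporter; potency for inhibition of the luciferase signal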
# [8] = inhibitors of SNCA 5'UTR-driven reporter translation, confirmation, H4 neuroglioma cells, luminescence (AID 1988); type: functional, cell-based
# Jurkat [9] = test: antigen receptor-induced NF-kB inhibitors, dose response, Jurkat, luciferase reporter, luminescence, B- and T-cell (AID 489004); type: functional, cell-based; conditions: Homo sapiens;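 further: NF-kB luciferase reporter Jurkat cells stimulated with PMA plus ionomycin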
# [10] = inhibitors of firefly luciferase expression or activity, dose response, H4 neuroglioma cells, luminescence (AID 1990); type: functional, cell-based
# [11] = off-target signal loss in HeLa-CEM21 co-culture – HeLa F-luc CTL cells, cherry-picked, counter-screen for HIV-1 Env fusion inhibitor project, dose response (AID 652040); type: functional, cell-based;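 further: potency for signal decrease marking cytotoxic or nonspecific inhibition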
# [12] = biological target: Voltage-dependent T-type calcium channel subunit alpha-1H (Homo sapiens, UniProt O95180); type: functional;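 further: channel activity triggered by adding a high calcium stimulation buffer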
# [13] = Luminescence Cell-Based Dose Response HTS to Identify Inhibitors of 5'UTR Stem-Loop Driven Prion Protein mRNA Translation in H4 Neuroglioblastoma Cells. [Related pubchem assays: 1827 (Project Summary), 1813 (Primary HTS)]; type: functional
# [14] = ZM109 Env clade C HIV-1 fusion inhibitors, dose response, HeLa effector, CEM target cells, luciferase, cherry-pick (AID 652058); type: functional, cell-based
# [15] = biological target: Glyceraldehyde-3-phosphate dehydrogenase (Homo sapiens, UniProt P04406)
# [16] = inhibitors of clade B AD8 Env fusion, dose response, cell-based, cherry-pick (AID 652062); type: functional;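 further: luciferase signal from cell-cell fusion driven by HIV-1 clade B AD8 Env; potency is for inhibitors of fusion seen as a drop in luminescence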
# [17] = cytotoxicity in HEK-293T NF-kB-Luc cells, dose response, cytotoxicity control for B/T-cell NF-kB inhibitor project, cell-based, uHTS hits (AID 489019); type: functional;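 further: IC50 reflects cytotoxicity as loss of cell viability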
# [18] = luciferase reporter signal reduction – luminescence, H4-C neuroglioblastoma cells, dose response (AID 2458); type: functional, cell-based;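 further: H4 neuroglioblastoma cells stably carrying a luciferase reporter gene fusion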
# [19] = inhibitors of HIV Env-driven cell fusion, dose response, cherry-pick (AID 652057); type: functional, cell-based
# cells = type: functional, cell-based
# HEK293 [20] = test: SAR Analysis of small molecule inhibitors of T-cell specific antigen receptor-induced NF-kB activation in a HEK-293T cell line using a luminescence assay - Set 2. [Related pubchem assays (depositor defined):AID435003, AID435012, AID489026]; type: functional, cell-based; conditions: Homo sapiens
# Jurkat [21] = test: SAR Analysis of small molecule inhibitors of T-cell specific antigen receptor-induced NF-kB activation in a Jurkat cell line using a luminescence assay - Set 2. [Related pubchem assays (depositor defined):AID435003, AID435012, AID465]; type: functional, cell-based; conditions: Homo sapiens
# HEK293 [22] = test: cytotoxicity in HEK293T NF-kB-Luc cells, SAR follow-up, cytotoxicity control for NF-kB activator project, cell-based, resazurin fluorescence (AID 493251); type: functional; conditions: Homo sapiens
# Chain of Dual specificity protein kinase CLK1 (P49759 whole entry): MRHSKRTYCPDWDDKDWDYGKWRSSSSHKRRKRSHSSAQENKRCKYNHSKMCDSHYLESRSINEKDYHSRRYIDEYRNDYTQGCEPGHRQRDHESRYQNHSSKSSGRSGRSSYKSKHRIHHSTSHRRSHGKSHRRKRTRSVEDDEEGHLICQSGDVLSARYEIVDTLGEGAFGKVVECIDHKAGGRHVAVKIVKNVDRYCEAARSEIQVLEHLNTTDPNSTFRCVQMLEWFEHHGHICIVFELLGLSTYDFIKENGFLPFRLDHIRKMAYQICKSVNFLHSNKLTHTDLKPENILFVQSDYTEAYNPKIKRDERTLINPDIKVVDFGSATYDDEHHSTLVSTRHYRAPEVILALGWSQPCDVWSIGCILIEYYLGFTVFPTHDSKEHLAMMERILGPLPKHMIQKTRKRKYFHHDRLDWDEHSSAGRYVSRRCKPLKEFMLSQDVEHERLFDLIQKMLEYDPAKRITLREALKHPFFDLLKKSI
# Chain of Glyceraldehyde-3-phosphate dehydrogenase (P04406 whole entry, the tested form may be a part): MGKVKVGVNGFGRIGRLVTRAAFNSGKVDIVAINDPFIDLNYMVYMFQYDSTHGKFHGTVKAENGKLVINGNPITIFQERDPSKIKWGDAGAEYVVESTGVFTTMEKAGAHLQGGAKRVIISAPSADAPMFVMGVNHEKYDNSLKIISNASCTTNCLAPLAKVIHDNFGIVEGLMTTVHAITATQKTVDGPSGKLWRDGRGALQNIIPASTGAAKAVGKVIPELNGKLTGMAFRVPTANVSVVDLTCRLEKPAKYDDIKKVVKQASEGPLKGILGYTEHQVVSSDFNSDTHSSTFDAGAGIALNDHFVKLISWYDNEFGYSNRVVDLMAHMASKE
# Chain of CAAX prenyl protease 1 (P47154 whole entry): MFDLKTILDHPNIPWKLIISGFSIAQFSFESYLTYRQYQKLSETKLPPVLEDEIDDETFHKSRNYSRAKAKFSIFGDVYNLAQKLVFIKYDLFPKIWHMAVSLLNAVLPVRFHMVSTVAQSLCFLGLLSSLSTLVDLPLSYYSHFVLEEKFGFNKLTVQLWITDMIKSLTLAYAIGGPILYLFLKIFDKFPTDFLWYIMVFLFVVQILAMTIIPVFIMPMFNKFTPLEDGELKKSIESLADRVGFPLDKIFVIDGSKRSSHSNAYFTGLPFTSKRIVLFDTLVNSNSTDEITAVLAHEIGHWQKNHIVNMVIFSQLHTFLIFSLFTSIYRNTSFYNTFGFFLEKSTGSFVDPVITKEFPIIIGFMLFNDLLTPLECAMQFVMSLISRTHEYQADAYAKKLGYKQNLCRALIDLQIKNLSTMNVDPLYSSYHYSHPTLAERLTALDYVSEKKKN
# Chain of Voltage-dependent T-type calcium channel subunit alpha-1H (O95180 whole entry): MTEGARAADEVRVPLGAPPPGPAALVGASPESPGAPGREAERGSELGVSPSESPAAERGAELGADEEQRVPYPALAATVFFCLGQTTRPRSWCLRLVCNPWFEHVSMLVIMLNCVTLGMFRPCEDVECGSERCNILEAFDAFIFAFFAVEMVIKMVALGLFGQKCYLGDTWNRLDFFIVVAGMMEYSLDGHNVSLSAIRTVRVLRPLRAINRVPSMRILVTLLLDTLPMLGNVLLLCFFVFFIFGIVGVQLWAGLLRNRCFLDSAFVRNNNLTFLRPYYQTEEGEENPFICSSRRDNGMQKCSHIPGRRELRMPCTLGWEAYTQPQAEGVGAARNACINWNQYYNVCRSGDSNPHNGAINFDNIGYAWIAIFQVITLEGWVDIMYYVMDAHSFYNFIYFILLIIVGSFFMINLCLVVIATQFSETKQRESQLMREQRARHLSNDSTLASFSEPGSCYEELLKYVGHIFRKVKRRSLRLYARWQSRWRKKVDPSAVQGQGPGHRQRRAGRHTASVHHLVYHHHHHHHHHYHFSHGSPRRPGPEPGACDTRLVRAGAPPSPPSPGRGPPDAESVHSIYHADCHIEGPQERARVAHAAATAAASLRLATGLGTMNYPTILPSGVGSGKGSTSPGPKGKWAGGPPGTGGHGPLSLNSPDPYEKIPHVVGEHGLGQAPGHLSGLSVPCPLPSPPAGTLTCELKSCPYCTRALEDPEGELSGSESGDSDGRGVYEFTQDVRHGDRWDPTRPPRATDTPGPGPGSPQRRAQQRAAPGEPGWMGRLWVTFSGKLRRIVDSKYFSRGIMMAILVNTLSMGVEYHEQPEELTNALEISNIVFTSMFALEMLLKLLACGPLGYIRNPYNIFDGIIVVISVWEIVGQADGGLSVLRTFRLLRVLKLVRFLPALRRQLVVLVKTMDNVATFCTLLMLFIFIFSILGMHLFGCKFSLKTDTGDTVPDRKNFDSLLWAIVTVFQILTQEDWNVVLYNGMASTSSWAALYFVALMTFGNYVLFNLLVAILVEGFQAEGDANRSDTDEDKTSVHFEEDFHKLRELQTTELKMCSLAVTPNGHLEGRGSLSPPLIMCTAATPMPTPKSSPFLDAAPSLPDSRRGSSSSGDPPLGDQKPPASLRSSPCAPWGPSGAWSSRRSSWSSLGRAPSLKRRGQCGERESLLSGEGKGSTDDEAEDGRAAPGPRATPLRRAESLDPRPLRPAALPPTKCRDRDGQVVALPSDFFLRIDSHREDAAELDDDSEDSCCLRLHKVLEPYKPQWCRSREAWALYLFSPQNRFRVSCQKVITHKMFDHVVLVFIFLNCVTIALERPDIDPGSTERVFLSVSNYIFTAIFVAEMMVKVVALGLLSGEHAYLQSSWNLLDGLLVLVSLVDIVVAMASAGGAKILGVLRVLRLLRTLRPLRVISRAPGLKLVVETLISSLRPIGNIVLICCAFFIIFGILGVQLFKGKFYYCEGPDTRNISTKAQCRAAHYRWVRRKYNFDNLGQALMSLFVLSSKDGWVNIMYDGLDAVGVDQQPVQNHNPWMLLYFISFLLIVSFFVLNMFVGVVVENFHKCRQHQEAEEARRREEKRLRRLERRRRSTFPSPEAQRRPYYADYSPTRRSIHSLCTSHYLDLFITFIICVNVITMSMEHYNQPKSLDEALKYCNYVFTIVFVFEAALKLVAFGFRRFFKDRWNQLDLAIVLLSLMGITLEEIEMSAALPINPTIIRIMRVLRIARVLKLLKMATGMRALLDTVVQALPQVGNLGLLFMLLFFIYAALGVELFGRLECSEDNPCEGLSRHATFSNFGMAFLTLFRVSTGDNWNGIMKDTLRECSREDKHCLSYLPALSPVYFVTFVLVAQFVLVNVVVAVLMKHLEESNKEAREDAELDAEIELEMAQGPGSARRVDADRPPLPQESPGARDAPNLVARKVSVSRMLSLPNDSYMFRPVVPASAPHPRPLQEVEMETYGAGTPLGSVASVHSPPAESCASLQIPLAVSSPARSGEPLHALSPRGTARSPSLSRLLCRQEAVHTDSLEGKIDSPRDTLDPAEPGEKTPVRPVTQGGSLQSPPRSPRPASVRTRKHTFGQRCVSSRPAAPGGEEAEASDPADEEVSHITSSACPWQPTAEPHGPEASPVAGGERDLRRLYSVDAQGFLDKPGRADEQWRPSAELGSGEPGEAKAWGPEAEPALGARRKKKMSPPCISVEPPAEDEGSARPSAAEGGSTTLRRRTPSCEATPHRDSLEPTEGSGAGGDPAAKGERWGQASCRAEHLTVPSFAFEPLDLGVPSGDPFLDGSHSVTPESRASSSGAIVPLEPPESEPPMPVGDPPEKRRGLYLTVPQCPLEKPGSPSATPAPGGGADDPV
# Chain of Luciferin 4-monooxygenase (P08659 whole entry): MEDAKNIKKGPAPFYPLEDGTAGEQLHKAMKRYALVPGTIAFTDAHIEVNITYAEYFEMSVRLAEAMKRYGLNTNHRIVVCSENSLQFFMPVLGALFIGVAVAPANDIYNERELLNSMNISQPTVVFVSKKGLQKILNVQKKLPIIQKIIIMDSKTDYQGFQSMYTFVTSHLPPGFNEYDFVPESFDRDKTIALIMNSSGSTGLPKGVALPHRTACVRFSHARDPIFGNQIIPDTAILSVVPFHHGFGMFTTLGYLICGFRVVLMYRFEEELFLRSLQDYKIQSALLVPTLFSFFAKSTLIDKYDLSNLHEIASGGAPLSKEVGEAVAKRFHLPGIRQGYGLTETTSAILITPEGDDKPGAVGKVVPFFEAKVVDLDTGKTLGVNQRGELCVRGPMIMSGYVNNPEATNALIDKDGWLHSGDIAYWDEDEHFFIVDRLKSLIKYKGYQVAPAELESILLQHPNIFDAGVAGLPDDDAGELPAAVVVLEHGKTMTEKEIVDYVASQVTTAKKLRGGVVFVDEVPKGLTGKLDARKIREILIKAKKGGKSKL
structure (smiles),measurement,setting,value
O=C(c1cccs1)N(Cc1nc(O)c2c3c(sc2n1)CCCC3)C1CCCC1,IC50,Vero [1],13.4 µM (active)
same,CC50,Vero [2],> 25 µM (active)
CC1=C(C(=O)N2CCOCC2)C(c2ccccc2F)C2=C(O)CC(C)(C)CC2=N1 (stereo not given),AC50,CAAX prenyl protease 1,14.6 µM (active)
CCOC(=O)c1ccc(-c2ccc3ncnc(NCc4ccc(C)o4)c3c2)o1,AC50,[3],2.72 nM (active) and 93.6 nM (active)
CC(C)N1CCC(N2CCN(C3CCCCC3)CC2CCO)CC1 (stereo not given),AC50,Escherichia coli [4],16.8 µM (active)
same,AC50,Escherichia coli [5],97 µM (active)
COC(=O)CCn1nnc(-c2ccc(C(C)C)cc2)n1,EC50,[6],2.39 µM (active)
same,EC50,HT-1080,> 50 µM (not active)
same,EC50,[7],0.373 µM (active)
same,EC50,[8],< 0.1 µM (active)
same,IC50,Jurkat [9],< 0.16 µM (active)
same,EC50,[10],< 0.1 µM (active)
same,AC50,[11],< 0.26 µM (active)
same,EC50,[12],16.2 µM (active)
same,EC50,[13],< 0.1 µM (active)
same,AC50,[14],< 0.26 µM (active)
same,IC50,[15],> 100 µM (not active)
same,AC50,[16],0.379 µM (active)
same,IC50,[17],> 80 µM (inactive)
same,EC50,[18],0.251 µM (active)
same,AC50,[19],< 0.26 µM (active)
same,EC50,cells,0.477 µM (active)
Cc1ccc2nsnc2c1NC(=O)c1ccc([N+](=O)[O-])o1,IC50,HEK293 [20],37.9 µM (inactive)
same,IC50,Jurkat [21],22.7 µM (inactive)
same,IC50,HEK293 [22],> 80 µM (inactive)
